Assay results: US4481139A, “Peptide antagonists of substance P” (Board of Regents, The University of Texas System, priority 1983, dated 1984)
Several values for one entry are separate records, joined by “and”; a condition that tells them apart may be missing. Equal values may be shown once. Non-standard residues stand in square brackets, D forms with d. Residues, ends and D or L forms follow the SMILES beside them. pGlu = O=C1CC[C@@H](C(=O)O)N1

Tests used:
[1] = test system: terminal portion of the guinea pig ileum; test: Antagonistic activity against substance P on the terminal portion of the guinea pig ileum; type: cell-based; conditions: analog at 10^-4 (concentration unit not given)
Experimental: The antagonistic activities of the analogs were evaluated using the terminal portion of the guinea pig ileum, as described by Yamaguchi et al. [Acta Chem. Scand. B33, 63 (1979)]. The biological assay data are in Table IV.
The sequence of substance P (SP) is expressed in the top of Table IV. The antagonistic activity is defined as the fold-increase in the concentration of SP in the presence of the analog to give 50% of the maximal response which is elicited by SP alone. The sequences of the analogs which were designed and synthesized are in Table IV. The eleven amino acids of SP are spaced across the top line to facilitate visual comparison of the amino acids in SP with those in the analogs. For example, analog I is also spaced across the page to show the sequence relationship to SP. On this basis, analog I is H-Arg^1,Pro^2,Lys^3,Pro^4,D-Phe^5,Gln^6,D-Trp^7,Phe^8 D-Trp^9,Leu^10,Leu^11 -NH2, but on the basis of conventional peptide nomenclature, analog I is expressed as [D-Phe^5,D-Trp^7,D-Trp^9,Leu^11 ]-SP5-11.

[2] = SP = 1; cited from earlier work
[3] = Solubility in 50% ethanol (footnote to Table IV); type: physicochemical

Compound | Fold increase in conc. of SP in the presence of the analog to give 50% of the maximal response elicited by SP alone [1] | Relative activity in comparison with SP as 1 [2] | Solubility [3]
CC(C)C[C@H](NC(=O)[C@@H](Cc1c[nH]c2ccccc12)NC(=O)[C@H](Cc1ccccc1)NC(=O)[C@@H](Cc1c[nH]c2ccccc12)NC(=O)[C@H](CCC(N)=O)NC(=O)[C@@H]1CCC(=O)N1)C(=O)N[C@H](C(N)=O)[C@@H](C)O [Analog III, [Glp^5,D-Trp^7,D-Trp^9,Thr^11]--SP5-11] ([pGlu]Q[dW]F[dW]LT-NH2) | 2 fold |  | 
Glp-Gln-Phe-Phe-Gly-Leu-Met-NH2 ([pGlu]QFFGLM-NH2; SMILES CSCC[C@H](NC(=O)[C@H](CC(C)C)NC(=O)CNC(=O)[C@H](Cc1ccccc1)NC(=O)[C@H](Cc1ccccc1)NC(=O)[C@H](CCC(N)=O)NC(=O)[C@@H]1CCC(=O)N1)C(N)=O) [truncated heptapeptide analog of SP from Yanaihara et al] |  | 1.7 | 
CC(C)C[C@H](NC(=O)[C@H](CC(C)C)NC(=O)[C@@H](Cc1c[nH]c2ccccc12)NC(=O)[C@H](Cc1ccccc1)NC(=O)[C@@H](Cc1c[nH]c2ccccc12)NC(=O)[C@H](CCC(N)=O)NC(=O)[C@@H]1CCC(=O)N1)C(N)=O [Analog V, [Glp^5,D-Trp^7,D-Trp^9,Leu^11]--SP5-11] ([pGlu]Q[dW]F[dW]LL-NH2) | 17 fold |  | 
[D-Phe^5,D-Trp^7,D-Trp^9,Leu^11 ]-SP5-11 [Analog I] | > 200 fold and 200 fold |  | difficulty soluble in 50% ethanol
